Consider one molecule from US9119396B2, “Method for promoting plant growth” (SUMITOMO CHEMICAL COMPANY, LIMITED, priority 2011, dated 2015).

Common to all, as to assay type: in vivo
The subject of assay [1] is Rice (cultivar: Nipponbare). The experiment in a line: Test Example 4: reduction of low-temperature stress by immersion treatment of rice. The note with it: rice seedlings, immersion at 1 ppm for 2 days; low-temperature stress 4° C. 5 days, then 4 days at 25° C. The protocol:
Evaluation Test for Reduction of Low-Temperature Stress by Immersion Treatment of Rice Rice (cultivar: Nipponbare) A necessary amount of rice seeds was immersed in an aqueous solution of 1,000 ppm of Benlate, and incubated at 30° C. overnight under dark conditions. The aqueous solution of Benlate was replaced with distilled water, and the seeds were further incubated at 30° C. overnight under dark conditions to stimulate the germination of the seeds. A filter paper was placed on the holes of a plug tray having 406 holes, and the rice seeds obtained after the stimulation of germination were sown on the filter paper. To the rice seeds was added a kimura B solution for hydroponics (see Plant Science 119: 39-47 (1996)) at ½ concentration, and cultivated for 5 days in an artificial weather control room under the following conditions: • temperature: 28° C. in daytime/23° C. in night, humidity: 70%, illuminance: 8,500 lux, and day length: 12 hours. <Compound Treatment> A DMSO solution of 1,000 ppm of the present compound 1 was prepared, and diluted with a kimura B solution for hydroponics at ½ concentration. The solution for hydroponics containing the compound was dispensed into the wells of a 24-well plate at 2 ml per well. […] In the treated group, the experiment was performed in duplication and the average value of the green area per individual was calculated. […]

For assay [2], the system named is Rice (cultivar: Nipponbare). The experiment in a line: Test Example 1: promotion of root growth in hydroponics of rice. Particulars: 1 ppm, 3 days germination + 3 days cultivation, average of 4 or 5 individuals. The protocol:
Evaluation Test for Promotion of Root Growth in Hydroponics of Rice Rice (cultivar: Nipponbare) A 1/10,000 volume of each DMSO solution containing each of the present compounds 1 to 4 at 10,000 ppm was added to a Hoagland solution for hydroponics (Hoagland and Amon, California Agricultural Experiment Station 1950 Circular 347 pp. 34) at ¼ concentration to obtain a solution for hydroponics containing each of the present compounds 1 to 4 at 1 ppm. These solutions were used in the treated-group. In a non-treated group, a solution for hydroponics obtained by adding a Hoagland solution for hydroponics at ¼ concentration to a 1/10,000 volume of DMSO was used. The rice seeds were immersed in an aqueous solution of 1% sodium hypochlorite for 10 minutes, followed by 70% ethanol solution to sterilize their surfaces. After that, the seeds were washed with distilled water. The sterilized seeds were immersed in each solution for hydroponics containing the test compound at 1 ppm, and incubated at a temperature of 28° C. for 3 days under dark conditions to stimulate the germination of the seeds. Then, 30 ml of each solution for hydroponics containing the test compound at 1 ppm was dispensed into a plastic tube (20 mm in diameter×113 mm in height) covered with a cardboard on the lateral surface for blocking a light. A float made of a styrene board and a vinyl mesh was placed on the water surface of each solution for hydroponics, and the rice seeds obtained after the stimulation of germination were placed on the float. The seeds were cultivated for 3 days under the conditions of an illuminance of 4,000 lux at the top of the tube, a temperature of 26° C., a humidity of 50%, and a day length of 16 hours. The root length of the rice seedlings obtained after the cultivation was measured by using WinRHIZO system (manufactured by REGENT INSTRUMENTS). The average value of the root length in the treated group was calculated from the measurement values of 4 or 5 individuals. As a result, the root length in the treated group, wherein the plants were treated with the present compound 1, 2, 3 or 4 (at a concentration of 1 ppm in each case), was much longer than that in the non-treated group.

Assay [3] concerns Corn (cultivar: Kuromochi). The experiment in a line: Test Example 2: promotion of growth by treatment of corn seeds. Particulars: corn seed treatment, 50 g per 100 kg of seeds; cultivated 18 days at 27° C. The protocol:
Evaluation Test for Promotion of Growth by Treatment of Corn Seeds Corn (cultivar: Kuromochi) A blank slurry solution containing 10% (V/V) color coat red (Becker Underwood, Inc.), 10% (V/V) CF-Clear (Becker Underwood, Inc.) and 1.66% Maxim 4FS (Syngenta) was prepared. A slurry solution was prepared by dissolving the present compound 1 in the blank slurry solution such that 50 g of the compound is applied to each 100 kg of corn seeds. In a 50-ml centrifuge tube (manufactured by BD Japan), 0.35 ml of the slurry solution was placed for each 14.4 g of corn seeds and stirred until the solution was dried, thereby coating the seeds. In addition, seeds were coated with the blank slurry solution and used as seeds for a non-treated group. One of the treated seeds was sown in culture soil (AISAI) in each pot (55 mm in diameter×58 mm in height) and cultivated for 18 days under the conditions of a temperature of 27° C., an illuminance of 5,000 lux, and a day length of 16 hours. After the cultivation, the fresh weight of the overground part of the plants was measured. The experiment was performed in three replications for each treatment condition and the average weight per individual was calculated. […]

`COC(=O)c1cc2cc(C(F)(F)F)ccc2s1` [compound 1]: the “green area of the overground part of the plant vs non-treated group” value in assay [1] is “much larger”. For the same molecule, in assay [2], the “root length of the rice seedlings vs non-treated group” value is reported as “much longer”. The “fresh weight of the overground part of plants vs non-treated group” value in assay [3] is reported as “much heavier”.
